We go through one compound from patent US20250034132A1, “PROLYL HYDROXYLASE DOMAIN-CONTAINING PROTEIN (PHD) INHIBITORS AND USES THEREOF” (Insilico Medicine IP Limited, priority 2021, published 2025).

SMILES strings stand for the structures.

This experiment has as its target PHD2 (Homo sapiens, UniProt Q9GZT9). Briefly: PHD2 enzymatic assay (AlphaScreen). The following applies: IC50 from % inhibition. The experiment is classed as biochemical.

Sequence of PHD2 (Q9GZT9 whole entry): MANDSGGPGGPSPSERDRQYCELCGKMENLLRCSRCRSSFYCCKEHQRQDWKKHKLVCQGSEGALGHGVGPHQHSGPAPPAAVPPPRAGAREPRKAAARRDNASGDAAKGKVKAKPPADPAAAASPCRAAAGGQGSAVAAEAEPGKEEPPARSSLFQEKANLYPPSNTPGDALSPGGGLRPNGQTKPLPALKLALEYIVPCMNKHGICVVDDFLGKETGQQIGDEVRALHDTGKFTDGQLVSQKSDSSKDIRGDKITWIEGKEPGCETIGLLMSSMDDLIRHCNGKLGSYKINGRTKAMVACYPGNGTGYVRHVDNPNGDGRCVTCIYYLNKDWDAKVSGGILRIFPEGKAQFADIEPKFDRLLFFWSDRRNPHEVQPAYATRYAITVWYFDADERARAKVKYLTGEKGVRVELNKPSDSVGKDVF

The IC50 is the midpoint of a concentration-inhibition curve. Read a low IC50 as greater potency in that assay. `N#Cc1ccc(CNC(=O)c2ncc3nc(N4CC(N)C4)ccc3c2O)cn1` [Example 132] had an IC50 of less than 5 nM.
